Values after ≈ are worked out from the molar mass of the structure shown. Active and inactive are the calls of the source. No cut-off for these calls is given here.
Key:
[1] = target: T1, Poly [ADP-ribose] polymerase 1 (Homo sapiens, UniProt P09874); test: Inhibition of PARP1 (unknown origin) by ELISA
[2] = Cytotoxicity against BRCA2 deficient Chinese hamster VC8 cells after 3 days by CCK8 or SRB assay; assay type: functional, cell-based; conditions: Cricetulus griseus, V-C8, 72 h
[3] = system: V79; test: Cytotoxicity against BRCA2 expressing Chinese hamster V79 cells after 3 days by CCK8 or SRB assay; assay type: cell-based; conditions: Cricetulus griseus, V79, 72 h
[4] = Solubility of the compound in water after 24 hrs by HPLC analysis; assay type: physicochemical
[5] = target: T1, Poly [ADP-ribose] polymerase 1; test: Inhibition of PARP1 in BRCA1 deficient human MDA-MB-436 cells assessed as increase in DNA double stranded breaks by measuring gammaH2AX levels after 72 hrs by Western blot analysis; assay type: cell-based
[6] = target: T1, Poly [ADP-ribose] polymerase 1; test: Inhibition of PARP1 in BRCA1 deficient human MDA-MB-436 cells assessed as increase in DNA double stranded breaks by measuring gammaH2AX levels after 48 hrs by Western blot analysis; assay type: cell-based
[7] = system: CAPAN-1; test: Cell cycle arrest in human Capan1 cells assessed as accumulation at G0/G1 phase at 0.1 uM after 72 hrs by propidium iodide-staining based flow cytometry (reference value: 63.33%); assay type: functional
[8] = system: CAPAN-1; test: Cell cycle arrest in human Capan1 cells assessed as accumulation at S phase at 0.1 uM after 72 hrs by propidium iodide-staining based flow cytometry (reference value: 21.42%); assay type: functional
[9] = system: CAPAN-1; test: Cell cycle arrest in human Capan1 cells assessed as accumulation at G2/M phase at 0.1 uM after 72 hrs by propidium iodide-staining based flow cytometry (reference value: 15.26%); assay type: functional
[10] = system: CAPAN-1; test: Cell cycle arrest in human Capan1 cells assessed as accumulation at G0/G1 phase at 1 uM after 72 hrs by propidium iodide-staining based flow cytometry (reference value: 63.33%); assay type: functional
[11] = system: CAPAN-1; test: Cell cycle arrest in human Capan1 cells assessed as accumulation at S phase at 1 uM after 72 hrs by propidium iodide-staining based flow cytometry (reference value: 21.42%); assay type: functional
[12] = system: CAPAN-1; test: Cell cycle arrest in human Capan1 cells assessed as accumulation at G0/G1 phase at 10 uM after 72 hrs by propidium iodide-staining based flow cytometry (reference value: 63.33%); assay type: functional
[13] = system: CAPAN-1; test: Cell cycle arrest in human Capan1 cells assessed as accumulation at S phase at 10 uM after 72 hrs by propidium iodide-staining based flow cytometry (reference value: 21.42%); assay type: functional
[14] = system: CAPAN-1; test: Effect on total chk1 protein levels in human Capan1 cells at 0.1 to 1 uM after 48 hrs by Western blot analysis; assay type: ADME, cell-based; conditions: capan-1, 48 h
[15] = system: CAPAN-1; test: Effect on total ATM protein levels in human Capan1 cells at 0.1 to 1 uM after 48 hrs by Western blot analysis; assay type: ADME, cell-based; conditions: capan-1, 48 h
[16] = target: T1, Poly [ADP-ribose] polymerase 1; test: Inhibition of PARP1 in human Capan1 cells assessed as increase in formation of phosphorylated ATM foci in cells at 10 uM after 48 hrs by confocal microscopy; assay type: cell-based
[17] = system: MDA-MB-436; test: Induction of apoptosis in human MDA-MB-436 cells assessed as early apoptotic cells at 1 uM after 96 hrs by Annexin V-FITC/propidium iodide double-staining based flow cytometery (reference value: 1.90%); assay type: functional
[18] = system: MDA-MB-436; test: Induction of apoptosis in human MDA-MB-436 cells assessed as late apoptotic cells at 1 uM after 96 hrs by Annexin V-FITC/propidium iodide double-staining based flow cytometery (reference value: 5.61%); assay type: functional
[19] = system: MDA-MB-436; test: Induction of apoptosis in human MDA-MB-436 cells assessed as early apoptotic cells at 0.1 uM after 96 hrs in presence of pancaspase inhibitor Z-VAD-FMK by Annexin V-FITC/propidium iodide double-staining based flow cytometery (reference value: 2.32%); assay type: functional
[20] = system: MDA-MB-436; test: Induction of apoptosis in human MDA-MB-436 cells after 96 hrs by Annexin V-FITC/propidium iodide double-staining based flow cytometery; assay type: functional, cell-based
[21] = system: MDA-MB-436; test: Induction of apoptosis in human MDA-MB-436 cells assessed as caspase-3/7 activation at 0.1 to 1 uM after 72 hrs by Caspase-Glo 3/7 assay; assay type: functional, cell-based
[22] = system: Mus musculus; test: Toxicity in nude BALB/cA mouse xenografted with human MDA-MB-436 cells harboring BRCA1 mutant assessed as weight loss at 50 mg/kg, po administered once daily for 21 consecutive days measured twice per week; assay type: organism-based; conditions: in vivo
[23] = system: CAPAN-1; test: Antitumor activity against human Capan1 cells harboring BRCA2 mutant xenografted in nude BALB/cA mouse assessed as tumor growth inhibition at 40 mg/kg, po administered once daily for 21 consecutive days measured twice per week; assay type: functional; conditions: CAPAN-1, po, read-out: TGI
[24] = system: Mus musculus; test: Toxicity in nude BALB/cA mouse xenografted with human Capan1 cells harboring BRCA2 mutant assessed as mortality at 40 mg/kg, po administered once daily for 21 consecutive days measured twice per week; assay type: organism-based; conditions: in vivo
[25] = Clearance in Sprague-Dawley rat at 5 mg/kg, iv by LC-MS/MS analysis; assay type: ADME, organism-based; conditions: in vivo
[26] = Volume of distribution in Sprague-Dawley rat at 5 mg/kg, iv by LC-MS/MS analysis; assay type: ADME, organism-based; conditions: in vivo
[27] = Cmax in Sprague-Dawley rat at 5 mg/kg, iv by LC-MS/MS analysis; assay type: ADME, organism-based; design: dose 5 mg/kg, route intravenous; conditions: in vivo
[28] = Cmax in Sprague-Dawley rat at 10 mg/kg, po by LC-MS/MS analysis; assay type: ADME, organism-based; design: dose 10 mg/kg, route oral; conditions: in vivo
[29] = Oral bioavailability in Sprague-Dawley rat at 10 mg/kg by LC-MS/MS analysis; assay type: ADME, organism-based; conditions: in vivo
[30] = Protein binding in mouse plasma at 0.5 to 50 uM after 4 hrs by LC-MS/MS analysis; assay type: ADME, cell-free; conditions: read-out: PPB (converted)
[31] = Elimination half-life in mouse liver microsomes at 2 uM up to 60 mins by LC-MS/MS analysis; assay type: ADME, microsome; conditions: read-out: beta t1/2
[32] = Apparent permeability across apical to basolateral side in human Caco2 cells after 2 hrs by LC-MS/MS analysis; assay type: ADME, cell-based; conditions: Caco-2
[33] = Apparent permeability across basolateral to apical side in human Caco2 cells after 2 hrs by LC-MS/MS analysis; assay type: ADME, cell-based; conditions: Caco-2
[34] = Drug metabolism in mouse liver microsomes assessed as dehydrogenation at 2 uM up to 60 mins in presence of NADPH by LC-MS/MS analysis; assay type: ADME, microsome; conditions: 1 h
[35] = Drug metabolism in mouse liver microsomes assessed as oxidative metabolite formation at 2 uM up to 60 mins in presence of NADPH by LC-MS/MS analysis; assay type: ADME, microsome; conditions: 1 h
[36] = target: T1, Poly [ADP-ribose] polymerase 1; test: Inhibition of PARP1 in BRCA2 deficient human Capan1 cells assessed as increase in DNA double stranded breaks by measuring gammaH2AX levels after 72 hrs by Western blot analysis
[37] = target: T1, Poly [ADP-ribose] polymerase 1; test: Inhibition of PARP1 in BRCA2 deficient human Capan1 cells assessed as increase in DNA double stranded breaks by measuring gammaH2AX levels after 48 hrs by Western blot analysis
[38] = Retention time in mouse liver microsomes at 2 uM up to 60 mins in presence of NADPH by LC-MS/MS analysis; assay type: ADME, microsome; conditions: 1 h

T1 sequence (P09874 whole entry): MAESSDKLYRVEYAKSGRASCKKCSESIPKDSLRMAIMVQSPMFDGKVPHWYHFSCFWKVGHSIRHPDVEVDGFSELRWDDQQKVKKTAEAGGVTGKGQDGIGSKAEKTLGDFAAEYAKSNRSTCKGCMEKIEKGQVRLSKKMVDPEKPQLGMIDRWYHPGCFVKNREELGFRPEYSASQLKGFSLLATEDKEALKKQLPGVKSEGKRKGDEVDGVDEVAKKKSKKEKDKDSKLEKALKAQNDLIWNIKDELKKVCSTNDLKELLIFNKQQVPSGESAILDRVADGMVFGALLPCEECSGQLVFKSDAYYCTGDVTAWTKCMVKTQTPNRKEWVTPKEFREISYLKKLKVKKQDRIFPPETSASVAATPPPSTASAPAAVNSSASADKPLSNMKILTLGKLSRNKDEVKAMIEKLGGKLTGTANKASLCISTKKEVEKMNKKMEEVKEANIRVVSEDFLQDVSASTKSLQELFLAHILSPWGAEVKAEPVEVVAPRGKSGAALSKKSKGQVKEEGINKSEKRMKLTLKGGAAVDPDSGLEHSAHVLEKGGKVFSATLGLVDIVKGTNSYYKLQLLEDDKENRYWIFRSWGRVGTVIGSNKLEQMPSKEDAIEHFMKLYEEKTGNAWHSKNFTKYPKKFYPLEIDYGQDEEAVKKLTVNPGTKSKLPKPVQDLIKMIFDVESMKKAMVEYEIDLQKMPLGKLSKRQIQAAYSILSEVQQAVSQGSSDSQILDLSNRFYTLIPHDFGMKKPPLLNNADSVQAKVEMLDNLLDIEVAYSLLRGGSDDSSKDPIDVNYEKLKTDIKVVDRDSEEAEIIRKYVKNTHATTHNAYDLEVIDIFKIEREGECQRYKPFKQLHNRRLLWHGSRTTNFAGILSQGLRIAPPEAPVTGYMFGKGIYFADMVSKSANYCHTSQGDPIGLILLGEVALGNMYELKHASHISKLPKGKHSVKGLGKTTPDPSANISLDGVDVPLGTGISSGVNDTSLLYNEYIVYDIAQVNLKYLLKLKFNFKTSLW

N#Cc1cccnc1N1CCN(C(=O)c2cc(Cc3n[nH]c(=O)c4ccccc34)cc(F)c2F)CC1
IC50 [1]: 1.3 nM
IC50 [2]: 0.003 nM
IC50 [3]: 10000 to 10300 nM
solubility at 24 h [4]: 1.1 µg/mL (≈ 2.26 µM)
inhibition [5]: Dose-dependent effect
inhibition [6]: Dose-dependent effect
Activity [7]: 55.92%
Activity [8]: 26.75%
Activity [9]: 17.33%
Activity [10]: 22.38%
Activity [11]: 27.67%
Activity [12]: 5.15%
Activity [13]: 22.4%
Activity [14]: Non-Toxic
Activity [15]: Non-Toxic
inhibition [16]: Active
Activity [17]: 7.09%
Activity [18]: 32.34%
Activity [19]: 6.48%
Activity [20]: Dose-dependent effect
Activity [21]: Active
Activity [22]: Non-Toxic
inhibition in vivo at 40 mg/kg [23]: 48.1%
Activity [24]: Non-Toxic
clearance [25]: 60 mL/min/kg
Vd [26]: 27.5 L/kg
Cmax [27]: 3260 ng/mL
Cmax [28]: 74.4 ng/mL
bioavailability [29]: 4.7%
fraction unbound at 4 h, up to 50 µM [30]: 0.012
half-life at 2 µM [31]: 3 min
Papp A→B at 2 h [32]: 6.8 ×10⁻⁶ cm/s
Papp B→A at 2 h [33]: 34.1 ×10⁻⁶ cm/s
Drug metabolism [34]: Metabolite_Detected
Drug metabolism [35]: Metabolite_Detected
inhibition [36]: Dose-dependent effect
inhibition [37]: Dose-dependent effect
Retention_time [38]: 7.8 min
